From paper PMC5909127, “Optimization of a “bump-and-hole” approach to allele-selective BET bromodomain inhibition” (Chemical Science, 2018) come the findings set out here.

The structures appear in SMILES notation.

One may read the IC50 as the concentration that inhibits the measured activity by half. As a reminder, the Papp is a coefficient for how fast a substance crosses the barrier. Higher therefore signals fast passage. Broadly, the CC50 is the concentration at which the toxic effect on the cells reaches its halfway point. A high value points to better tolerance by the cells. Broadly, the inhibition is the percentage by which the read-out fell short of the control. Low values mean a response near the control, high ones a response far below the control.

The target of one data set is BRD4 BD2 L/V (Homo sapiens, UniProt O60885, L387V). Description: competitive AlphaLISA. Format: binding. (In Alpha technology, singlet oxygen from a donor bead excites a nearby acceptor bead.)
A short description of a further data set: in vitro. As to conditions: PAMPA, pH 7.4. In general terms: The PAMPA barrier holds no transporters, so it reflects passive diffusion.
A further data set has as its target BRDT BD2 WT (Homo sapiens, UniProt Q58F21). Description: competitive AlphaLISA. It counts as binding.
Another data set concerns the target BRD2 BD1 WT (Homo sapiens, UniProt P25440). The data set can be described thus: competitive AlphaLISA. Format: binding.
A further data set has as its target BRD2 BD2 L/V (Homo sapiens, UniProt P25440, L383V). Description: competitive AlphaLISA. It counts as binding.
The target in a further data set is BRDT BD2 L/V (Homo sapiens, UniProt Q58F21, L306V). The data set can be described thus: competitive AlphaLISA. Format: binding.
A further data set addresses BRD3 BD1 L/V (Homo sapiens, UniProt Q15059, L70V). Description: competitive AlphaLISA. Format: binding.
The next data set can be described thus: Intrinsic Clearance. To be noted: mouse liver microsomes.
Data set [1] deals with WT somatic BET bromodomains. Description: ITC. As to conditions: mean and SD of all somatic bromodomains.
Data set [2] concerns L/V BET bromodomains (BD1 and BD2 of BRD2, BRD3 and BRD4). Description: competitive AlphaLISA (Bio-JQ1 displacement). Format: binding, human.
For another data set, the system named is GABA (non-selective). The data set can be described thus: CEREP ExpresSProfile. It counts as binding. To be noted: 1 µM.
For another data set, the system named is BZD (central). Description: CEREP ExpresSProfile. It counts as binding. As to conditions: 1 µM.
A further data set has as its target GAL2 (h) (Homo sapiens, UniProt O43603). Description: CEREP ExpresSProfile. As to conditions: read-out: Mean % of control specific binding (±SD).
A further data set deals with 5-HT7 (h) (Homo sapiens, UniProt P34969). The data set can be described thus: CEREP ExpresSProfile. As to conditions: read-out: Mean % of control specific binding (±SD).
Chain of 5-HT7 (h) (P34969 whole entry): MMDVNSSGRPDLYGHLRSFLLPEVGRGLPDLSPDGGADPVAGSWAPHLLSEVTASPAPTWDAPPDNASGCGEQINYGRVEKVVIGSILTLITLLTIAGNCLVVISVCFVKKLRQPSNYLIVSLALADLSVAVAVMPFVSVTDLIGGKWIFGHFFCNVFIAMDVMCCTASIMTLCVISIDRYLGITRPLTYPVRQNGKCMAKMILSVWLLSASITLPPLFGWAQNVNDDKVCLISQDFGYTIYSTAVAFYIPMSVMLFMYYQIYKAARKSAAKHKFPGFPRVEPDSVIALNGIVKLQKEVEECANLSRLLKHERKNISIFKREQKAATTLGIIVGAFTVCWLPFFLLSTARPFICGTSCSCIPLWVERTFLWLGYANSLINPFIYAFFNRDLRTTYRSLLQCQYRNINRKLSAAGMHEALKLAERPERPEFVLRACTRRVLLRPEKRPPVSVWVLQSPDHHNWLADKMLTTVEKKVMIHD
For another data set, the target named is H2 (h) (Homo sapiens, UniProt P25021). Description: CEREP ExpresSProfile. To be noted: read-out: Mean % of control specific binding (±SD).
Another data set addresses dopamine transporter (h) (Homo sapiens, UniProt Q01959). Description: CEREP ExpresSProfile. To be noted: read-out: Mean % of control specific binding (±SD).
For another data set, the target named is 5-HT2B (h) (Homo sapiens, UniProt P41595). Description: CEREP ExpresSProfile. As to conditions: read-out: Mean % of control specific binding (±SD).
Chain of 5-HT2B (h) (P41595 whole entry): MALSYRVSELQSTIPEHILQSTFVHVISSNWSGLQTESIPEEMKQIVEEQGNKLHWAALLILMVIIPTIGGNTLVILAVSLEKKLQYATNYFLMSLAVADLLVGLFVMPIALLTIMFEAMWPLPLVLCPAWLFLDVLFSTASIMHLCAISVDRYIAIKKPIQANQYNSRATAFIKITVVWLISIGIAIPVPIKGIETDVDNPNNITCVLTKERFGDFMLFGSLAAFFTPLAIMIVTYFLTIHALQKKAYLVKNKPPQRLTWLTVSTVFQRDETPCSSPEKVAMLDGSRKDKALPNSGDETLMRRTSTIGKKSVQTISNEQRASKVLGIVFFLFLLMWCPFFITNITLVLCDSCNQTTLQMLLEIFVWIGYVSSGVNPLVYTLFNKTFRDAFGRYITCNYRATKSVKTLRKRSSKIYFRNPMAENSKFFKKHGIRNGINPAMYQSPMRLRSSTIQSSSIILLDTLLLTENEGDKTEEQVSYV
A short description of data set [3]: WT Cell Cytotoxicity (CellTiter-Glo). To be noted: human, HL-60 cells (BET-dependent AML cell line). In general terms: Cellular ATP, detected with luciferase, serves as a proxy for viable cell number.
The next data set has as its target beta 1 (h) (Homo sapiens, UniProt P08588). Description: CEREP ExpresSProfile. As to conditions: read-out: Mean % of control specific binding (±SD).
The next data set has as its target kappa (KOP) (Rattus norvegicus, UniProt P34975). Description: CEREP ExpresSProfile. As to conditions: read-out: Mean % of control specific binding (±SD).
For another data set, the target named is NK3 (h) (Homo sapiens, UniProt P29371). The data set can be described thus: CEREP ExpresSProfile. As to conditions: read-out: Mean % of control specific binding (±SD).
The target of the next data set is M1 (h) (Homo sapiens, UniProt P11229). Description: CEREP ExpresSProfile. To be noted: read-out: Mean % of control specific binding (±SD).
Chain of M1 (h) (P11229 whole entry): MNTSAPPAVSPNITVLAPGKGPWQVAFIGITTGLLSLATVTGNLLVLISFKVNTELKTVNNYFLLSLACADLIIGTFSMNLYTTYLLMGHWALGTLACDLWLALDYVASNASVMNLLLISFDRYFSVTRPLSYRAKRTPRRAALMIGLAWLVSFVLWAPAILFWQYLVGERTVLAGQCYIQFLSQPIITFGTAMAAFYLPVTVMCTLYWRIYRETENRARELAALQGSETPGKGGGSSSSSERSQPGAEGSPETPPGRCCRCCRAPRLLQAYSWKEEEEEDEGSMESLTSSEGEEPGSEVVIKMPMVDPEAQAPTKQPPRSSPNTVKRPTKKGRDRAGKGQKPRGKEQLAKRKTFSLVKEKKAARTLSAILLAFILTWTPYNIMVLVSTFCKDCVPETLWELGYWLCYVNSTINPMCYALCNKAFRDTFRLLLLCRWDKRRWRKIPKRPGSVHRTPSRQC
Data set [4] deals with Ca2+ channel (L, verapamil site). Description: CEREP ExpresSProfile. It counts as binding. To be noted: 1 µM.
For a further data set, the system named is Cl- channel (GABA-gated). Description: CEREP ExpresSProfile. As to conditions: 1 µM. Format: binding.
For a further data set, the target named is A1 (h) (Homo sapiens, UniProt P30542). Description: CEREP ExpresSProfile. To be noted: read-out: Mean % of control specific binding (±SD).
The next data set deals with Y1 (h) (Homo sapiens, UniProt P25929). Description: CEREP ExpresSProfile. As to conditions: read-out: Mean % of control specific binding (±SD).
Data set [5] has as its target GFP-labelled L/V BRD4 in U2OS cells (Homo sapiens, UniProt O60885, L387V/L94V). Description: FRAP. To be noted: 200 nM, 2 μM SAHA.
The target of another data set is Y2 (h) (Homo sapiens, UniProt P49146). The data set can be described thus: CEREP ExpresSProfile. As to conditions: read-out: Mean % of control specific binding (±SD).
The target of the next data set is beta 2 (h) (Homo sapiens, UniProt P07550). The data set can be described thus: CEREP ExpresSProfile. As to conditions: read-out: Mean % of control specific binding (±SD).
Data set [6] deals with norepinephrine transporter (h) (Homo sapiens, UniProt P23975). Description: CEREP ExpresSProfile. To be noted: read-out: Mean % of control specific binding (±SD).
Chain of norepinephrine transporter (h) (P23975 whole entry): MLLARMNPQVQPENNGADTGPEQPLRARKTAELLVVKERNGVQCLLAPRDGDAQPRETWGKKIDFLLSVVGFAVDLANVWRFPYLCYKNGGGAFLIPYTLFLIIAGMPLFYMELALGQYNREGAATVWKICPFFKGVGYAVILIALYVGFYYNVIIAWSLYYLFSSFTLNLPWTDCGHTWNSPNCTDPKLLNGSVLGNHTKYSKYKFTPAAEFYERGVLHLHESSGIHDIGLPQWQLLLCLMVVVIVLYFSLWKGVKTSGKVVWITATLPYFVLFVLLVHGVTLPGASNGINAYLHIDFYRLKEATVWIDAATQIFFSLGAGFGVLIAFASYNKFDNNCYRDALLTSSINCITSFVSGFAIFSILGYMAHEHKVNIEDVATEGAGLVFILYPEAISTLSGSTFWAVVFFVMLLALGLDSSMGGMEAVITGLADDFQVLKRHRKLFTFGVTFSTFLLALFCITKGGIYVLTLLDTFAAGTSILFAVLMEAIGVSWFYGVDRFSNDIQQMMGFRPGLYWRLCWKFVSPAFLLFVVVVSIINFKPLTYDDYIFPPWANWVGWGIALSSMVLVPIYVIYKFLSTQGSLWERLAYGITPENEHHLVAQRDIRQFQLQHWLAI
Text: (§1) Receptor Reference Compound Mean % of control specific
Receptor & Ion-Channel Screening
CEREP ExpresSProfile panel
Another data set has as its target 5-HT5a (h) (Homo sapiens, UniProt P47898). The data set can be described thus: CEREP ExpresSProfile. To be noted: read-out: Mean % of control specific binding (±SD).
The subject of another data set is alpha 1 (non-selective). The data set can be described thus: CEREP ExpresSProfile. As to conditions: 1 µM. Format: binding.
A further data set deals with H1 (h) (Homo sapiens, UniProt P35367). Description: CEREP ExpresSProfile. As to conditions: read-out: Mean % of control specific binding (±SD).
Another data set deals with CCK1 (CCKA) (h) (Homo sapiens, UniProt P32238). Description: CEREP ExpresSProfile. To be noted: read-out: Mean % of control specific binding (±SD).
Chain of CCK1 (CCKA) (h) (P32238 whole entry): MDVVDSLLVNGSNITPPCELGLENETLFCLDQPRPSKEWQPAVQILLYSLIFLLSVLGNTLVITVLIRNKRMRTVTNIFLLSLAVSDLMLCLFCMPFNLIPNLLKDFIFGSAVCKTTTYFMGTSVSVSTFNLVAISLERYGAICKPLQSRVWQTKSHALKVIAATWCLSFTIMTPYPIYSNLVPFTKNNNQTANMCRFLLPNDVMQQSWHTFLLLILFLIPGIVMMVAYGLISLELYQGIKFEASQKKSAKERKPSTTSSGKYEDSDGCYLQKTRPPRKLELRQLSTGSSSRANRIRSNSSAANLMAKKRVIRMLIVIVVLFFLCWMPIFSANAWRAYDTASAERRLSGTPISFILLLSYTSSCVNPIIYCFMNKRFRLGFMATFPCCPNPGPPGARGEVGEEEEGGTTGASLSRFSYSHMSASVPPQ
A further data set has as its target NOP (ORL1) (h) (Homo sapiens, UniProt P41146). Description: CEREP ExpresSProfile. As to conditions: read-out: Mean % of control specific binding (±SD).
The next data set concerns the target ETA (h) (Homo sapiens, UniProt P25101). The data set can be described thus: CEREP ExpresSProfile. To be noted: read-out: Mean % of control specific binding (±SD).
The target of data set [7] is GFP-labelled WT BRD4 in U2OS cells (Homo sapiens, UniProt O60885). Description: FRAP. As to conditions: 200 nM, 2 μM SAHA.
A further data set deals with D1 (h) (Homo sapiens, UniProt P21728). Description: CEREP ExpresSProfile. To be noted: read-out: Mean % of control specific binding (±SD).
Another data set addresses A2A (h) (Homo sapiens, UniProt P29274). Description: CEREP ExpresSProfile. As to conditions: read-out: Mean % of control specific binding (±SD).
Another data set deals with MT1 (ML1A) (h) (Homo sapiens, UniProt P48039). The data set can be described thus: CEREP ExpresSProfile. Format: binding.
Chain of MT1 (ML1A) (h) (P48039 whole entry): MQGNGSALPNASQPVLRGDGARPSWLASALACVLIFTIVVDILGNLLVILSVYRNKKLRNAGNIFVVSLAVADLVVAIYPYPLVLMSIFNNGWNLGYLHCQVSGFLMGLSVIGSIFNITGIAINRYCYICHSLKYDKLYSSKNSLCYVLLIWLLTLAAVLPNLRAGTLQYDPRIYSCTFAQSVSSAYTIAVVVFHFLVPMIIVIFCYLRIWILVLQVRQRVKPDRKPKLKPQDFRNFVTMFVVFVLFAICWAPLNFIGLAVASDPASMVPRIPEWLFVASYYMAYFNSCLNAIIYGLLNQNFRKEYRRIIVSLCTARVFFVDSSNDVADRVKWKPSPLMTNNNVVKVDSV
Data set [8] in a line: WT Cell Cytotoxicity (CellTiter-Glo). To be noted: human, MV4-11 cells (BET-dependent AML cell line).
The subject of another data set is MV4-11. The data set can be described thus: WT Cell Cytotoxicity (CellTiter-Glo). As to conditions: MV4-11 and HL-60.
Another data set deals with EP4 (h) (Homo sapiens, UniProt P35408). The data set can be described thus: CEREP ExpresSProfile. To be noted: read-out: Mean % of control specific binding (±SD).
Chain of EP4 (h) (P35408 whole entry): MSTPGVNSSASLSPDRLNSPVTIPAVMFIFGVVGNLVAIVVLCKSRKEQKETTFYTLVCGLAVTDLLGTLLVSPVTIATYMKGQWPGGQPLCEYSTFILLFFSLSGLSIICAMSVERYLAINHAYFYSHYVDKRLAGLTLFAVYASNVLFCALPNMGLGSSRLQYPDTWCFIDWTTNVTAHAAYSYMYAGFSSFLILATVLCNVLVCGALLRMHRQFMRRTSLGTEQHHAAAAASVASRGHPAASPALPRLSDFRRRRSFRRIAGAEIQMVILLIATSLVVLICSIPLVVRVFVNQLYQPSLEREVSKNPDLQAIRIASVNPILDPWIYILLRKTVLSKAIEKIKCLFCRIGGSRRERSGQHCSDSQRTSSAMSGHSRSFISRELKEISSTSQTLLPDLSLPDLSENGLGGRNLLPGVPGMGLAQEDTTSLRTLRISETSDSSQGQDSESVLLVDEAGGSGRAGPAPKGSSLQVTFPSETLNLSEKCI

Chain of A2A (h) (P29274 whole entry): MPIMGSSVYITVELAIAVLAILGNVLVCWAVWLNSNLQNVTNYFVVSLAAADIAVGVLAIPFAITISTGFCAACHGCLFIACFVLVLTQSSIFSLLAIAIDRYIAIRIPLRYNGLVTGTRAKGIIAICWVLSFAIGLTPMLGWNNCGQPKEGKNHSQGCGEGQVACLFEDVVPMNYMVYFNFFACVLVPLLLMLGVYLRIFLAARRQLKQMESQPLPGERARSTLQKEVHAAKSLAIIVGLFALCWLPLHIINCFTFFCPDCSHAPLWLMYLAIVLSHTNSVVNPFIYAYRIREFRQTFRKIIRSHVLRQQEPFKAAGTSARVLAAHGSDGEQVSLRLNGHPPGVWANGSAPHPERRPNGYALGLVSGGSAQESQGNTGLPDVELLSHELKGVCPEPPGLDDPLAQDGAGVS
Chain of beta 1 (h) (P08588 whole entry): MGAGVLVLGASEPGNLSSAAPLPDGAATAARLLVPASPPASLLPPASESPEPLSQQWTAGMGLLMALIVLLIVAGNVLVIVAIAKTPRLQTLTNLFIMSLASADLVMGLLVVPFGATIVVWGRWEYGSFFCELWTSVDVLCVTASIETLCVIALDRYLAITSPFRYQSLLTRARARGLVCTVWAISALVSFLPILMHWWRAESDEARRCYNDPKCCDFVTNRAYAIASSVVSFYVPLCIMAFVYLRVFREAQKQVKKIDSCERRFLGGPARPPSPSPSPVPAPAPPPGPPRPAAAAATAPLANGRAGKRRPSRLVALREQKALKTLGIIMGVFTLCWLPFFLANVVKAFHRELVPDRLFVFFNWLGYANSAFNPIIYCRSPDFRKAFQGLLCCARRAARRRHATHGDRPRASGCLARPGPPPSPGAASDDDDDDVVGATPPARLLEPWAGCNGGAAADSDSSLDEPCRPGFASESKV
Chain of dopamine transporter (h) (Q01959 whole entry): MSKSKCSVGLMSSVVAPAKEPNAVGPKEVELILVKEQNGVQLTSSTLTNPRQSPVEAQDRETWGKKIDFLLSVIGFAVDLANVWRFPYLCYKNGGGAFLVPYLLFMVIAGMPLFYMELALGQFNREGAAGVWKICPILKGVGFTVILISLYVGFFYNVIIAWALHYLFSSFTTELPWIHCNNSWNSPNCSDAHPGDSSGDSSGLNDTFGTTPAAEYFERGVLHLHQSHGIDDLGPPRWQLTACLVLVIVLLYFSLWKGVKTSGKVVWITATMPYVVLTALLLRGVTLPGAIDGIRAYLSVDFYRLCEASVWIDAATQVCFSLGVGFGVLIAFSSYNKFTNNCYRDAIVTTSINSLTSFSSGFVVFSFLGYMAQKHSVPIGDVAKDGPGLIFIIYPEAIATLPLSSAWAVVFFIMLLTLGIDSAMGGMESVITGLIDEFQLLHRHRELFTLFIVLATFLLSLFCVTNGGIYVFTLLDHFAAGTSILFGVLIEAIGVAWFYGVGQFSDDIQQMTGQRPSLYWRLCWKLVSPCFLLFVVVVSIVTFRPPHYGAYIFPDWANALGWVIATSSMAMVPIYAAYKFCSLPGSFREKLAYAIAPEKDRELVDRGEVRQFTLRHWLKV
Chain of BRD2 BD2 L/V (P25440 344-455 L383V): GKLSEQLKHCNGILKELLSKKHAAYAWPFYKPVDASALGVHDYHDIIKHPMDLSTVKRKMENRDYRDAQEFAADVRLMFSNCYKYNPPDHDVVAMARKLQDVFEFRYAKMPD
Text for A1 (h): as §1
Receptor & Ion-Channel Screening
CEREP ExpresSProfile panel
Text for CCK1 (CCKA) (h): as §1
Receptor & Ion-Channel Screening
CEREP ExpresSProfile panel
Text for ETA (h): as §1
Receptor & Ion-Channel Screening
CEREP ExpresSProfile panel
Text for GAL2 (h): as §1
Receptor & Ion-Channel Screening
CEREP ExpresSProfile panel
Text for NK3 (h): as §1
Receptor & Ion-Channel Screening
CEREP ExpresSProfile panel
Text for dopamine transporter (h): as §1
Receptor & Ion-Channel Screening
CEREP ExpresSProfile panel
Text for kappa (KOP): as §1
Receptor & Ion-Channel Screening
CEREP ExpresSProfile panel

As for `CC[C@@H](C(=O)OC)[C@@H]1N=C(c2ccc(Cl)cc2)c2ccc(OC)cc2-n2c(C)nnc21` (racemic) [Compound 8], the IC50 is 200 nM on BRD4 BD2 L/V; 3980 nM at BRDT BD2 WT; 10000 nM at BRD2 BD1 WT; 200 nM at BRD2 BD2 L/V; 398 nM at BRDT BD2 L/V; 126 nM at BRD3 BD1 L/V. In the data set “in vitro”, this compound yielded a Papp of 15.5 ×10⁻⁶ cm/s. In “Intrinsic Clearance”, this compound came in with a CL int of 4.1 ml min^–1 g^–1. Moreover, the “ITC pKd ± SD WT” value in data set [1] is reported as less than 4.2. The “AlphaLISA pIC50 ± SD Δ” value in [2] (L/V minus WT) was determined as 1.4 ± 0.2. Besides, the “AlphaLISA pIC50 ± SD L/V” value in [2] (mean and SD of all somatic bromodomains, active enantiomer concentration) came to 6.8 ± 0.2.

Take `COC(=O)[C@H](C)[C@@H]1N=C(c2ccc(Cl)cc2)c2ccc(OC)cc2-n2c(C)nnc21` [(2R,3S)-7]: the “Mean % of control specific binding (±SD)” value in the data set with GABA (non-selective) is listed as 110 (1) %; in the data set on BZD (central) it was 105 (10) %; in [4], 108 (6) %; in the data set on Cl- channel (GABA-gated) it was 98 (4) %; with alpha 1 (non-selective) it was 99 (12) %. Besides, the remaining activity at 1 µM is 96% on GAL2 (h); 106% on 5-HT7 (h); 117% on H2 (h); 84% at dopamine transporter (h); 109% on 5-HT2B (h); 95% at beta 1 (h). The remaining activity at 1 µM at kappa (KOP) came out at 96%; at NK3 (h), 99%; at M1 (h), 104%; at A1 (h), 100%; on Y1 (h) it was 122%; on Y2 (h), 110%. Further, the remaining activity at 1 µM was 105% on beta 2 (h); 88% in [6]; 109% on 5-HT5a (h); 108% on H1 (h); 90% at CCK1 (CCKA) (h); 94% on NOP (ORL1) (h). For the same compound, the remaining activity at 1 µM on ETA (h) was 87%; at D1 (h) it was 116%; at A2A (h), 99%; on MT1 (ML1A) (h) (read-out: Mean % of control specific binding (±SD)), 23%; at EP4 (h) it was 93%. Besides, the values for the 50% cytotoxic concentration (CC50) at 48 h in data set [3] and in data set [8] were more than 5010 nM and 2510 nM, respectively. The “displacement of L/V BRD4 (FRAP)” value in data set [5] is recorded as “almost complete displacement”. Further, in [7], the “blockade of WT BRD4 (FRAP)” value is “no statistically significant blockade”. At MT1 (ML1A) (h), this compound returned an inhibition at 1 µM of 77%. Moreover, the cytotoxicity result with MV4-11 is “no cytotoxicity below 1 μM”.
